The source of these data is US10689425B2, “Collagen-binding synthetic peptidoglycans, preparation, and methods of use” (Purdue Research Foundation, priority 2008, dated 2020).

For experiment [1], the system named is HCA SMCs. In words: Elastin content by Fastin elastin assay. As to conditions: gels cultured for 10 days. Format: cell-based, Human. As for the experimental part:
Differentiation medium was changed every three days and gels were cultured for 10 days. […] Gels were rinsed in 1×PBS overnight to remove serum protein, and gels were tested for elastin content using the Fastin elastin assay per manufacturers protocol (Biocolor, County […].). Briefly, gels were solubilized in 0.25 M oxalic acid by incubating at 100° C. for 1 hr. Elastin was precipitated and samples were then centrifuged at 11,000×g for 10 min. The solubilized collagen supernatant was removed and the elastin pellet was stained by Fastin Dye Reagent for 90 min at room temperature. Samples were centrifuged at 11,000×g for 10 min and unbound dye in the supernatant was removed. Dye from the elastin pellets was released by the Fastin Dye Dissociation Reagent, and 100 μL samples were transferred to a 96-well plate (Costar). Absorbance was measured at 513 nm, and elastin content was calculated from an α-elastin standard curve.

Experiment [2] deals with T1, collagen type I gels (Bos taurus, UniProt P02453+P02465).
T1 construct: purchased Inamed, Freemont, Calif; (Nutragen)
T1 sequence (P02453 162-1217 limits assumed): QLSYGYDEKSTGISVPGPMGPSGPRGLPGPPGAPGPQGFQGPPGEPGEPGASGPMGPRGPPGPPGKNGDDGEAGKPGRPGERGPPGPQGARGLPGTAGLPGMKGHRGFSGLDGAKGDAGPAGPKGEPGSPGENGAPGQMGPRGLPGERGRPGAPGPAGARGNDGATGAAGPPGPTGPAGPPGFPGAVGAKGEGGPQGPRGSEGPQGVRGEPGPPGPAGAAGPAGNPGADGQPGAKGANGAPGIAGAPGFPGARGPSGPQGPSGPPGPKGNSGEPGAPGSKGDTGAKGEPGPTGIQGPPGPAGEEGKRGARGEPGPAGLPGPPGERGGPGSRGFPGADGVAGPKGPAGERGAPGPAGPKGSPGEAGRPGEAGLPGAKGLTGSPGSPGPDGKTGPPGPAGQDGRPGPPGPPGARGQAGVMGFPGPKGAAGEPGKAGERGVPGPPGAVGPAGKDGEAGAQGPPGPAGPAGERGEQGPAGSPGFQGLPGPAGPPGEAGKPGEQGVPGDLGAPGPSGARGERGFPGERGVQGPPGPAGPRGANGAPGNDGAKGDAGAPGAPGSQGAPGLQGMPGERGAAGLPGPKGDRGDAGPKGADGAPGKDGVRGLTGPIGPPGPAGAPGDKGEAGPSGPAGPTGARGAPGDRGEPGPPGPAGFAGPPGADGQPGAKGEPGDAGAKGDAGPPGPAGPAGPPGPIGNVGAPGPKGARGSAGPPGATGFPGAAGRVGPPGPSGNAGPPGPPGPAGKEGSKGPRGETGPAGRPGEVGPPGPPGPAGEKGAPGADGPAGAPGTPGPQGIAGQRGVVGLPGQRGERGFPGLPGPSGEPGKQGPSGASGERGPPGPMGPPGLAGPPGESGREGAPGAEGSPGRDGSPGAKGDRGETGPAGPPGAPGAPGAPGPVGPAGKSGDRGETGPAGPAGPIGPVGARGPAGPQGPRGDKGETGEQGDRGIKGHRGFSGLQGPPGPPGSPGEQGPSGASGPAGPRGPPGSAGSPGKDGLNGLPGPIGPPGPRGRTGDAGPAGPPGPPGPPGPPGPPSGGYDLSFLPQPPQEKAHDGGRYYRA
T1 sequence (P02465 80-1117 limits assumed): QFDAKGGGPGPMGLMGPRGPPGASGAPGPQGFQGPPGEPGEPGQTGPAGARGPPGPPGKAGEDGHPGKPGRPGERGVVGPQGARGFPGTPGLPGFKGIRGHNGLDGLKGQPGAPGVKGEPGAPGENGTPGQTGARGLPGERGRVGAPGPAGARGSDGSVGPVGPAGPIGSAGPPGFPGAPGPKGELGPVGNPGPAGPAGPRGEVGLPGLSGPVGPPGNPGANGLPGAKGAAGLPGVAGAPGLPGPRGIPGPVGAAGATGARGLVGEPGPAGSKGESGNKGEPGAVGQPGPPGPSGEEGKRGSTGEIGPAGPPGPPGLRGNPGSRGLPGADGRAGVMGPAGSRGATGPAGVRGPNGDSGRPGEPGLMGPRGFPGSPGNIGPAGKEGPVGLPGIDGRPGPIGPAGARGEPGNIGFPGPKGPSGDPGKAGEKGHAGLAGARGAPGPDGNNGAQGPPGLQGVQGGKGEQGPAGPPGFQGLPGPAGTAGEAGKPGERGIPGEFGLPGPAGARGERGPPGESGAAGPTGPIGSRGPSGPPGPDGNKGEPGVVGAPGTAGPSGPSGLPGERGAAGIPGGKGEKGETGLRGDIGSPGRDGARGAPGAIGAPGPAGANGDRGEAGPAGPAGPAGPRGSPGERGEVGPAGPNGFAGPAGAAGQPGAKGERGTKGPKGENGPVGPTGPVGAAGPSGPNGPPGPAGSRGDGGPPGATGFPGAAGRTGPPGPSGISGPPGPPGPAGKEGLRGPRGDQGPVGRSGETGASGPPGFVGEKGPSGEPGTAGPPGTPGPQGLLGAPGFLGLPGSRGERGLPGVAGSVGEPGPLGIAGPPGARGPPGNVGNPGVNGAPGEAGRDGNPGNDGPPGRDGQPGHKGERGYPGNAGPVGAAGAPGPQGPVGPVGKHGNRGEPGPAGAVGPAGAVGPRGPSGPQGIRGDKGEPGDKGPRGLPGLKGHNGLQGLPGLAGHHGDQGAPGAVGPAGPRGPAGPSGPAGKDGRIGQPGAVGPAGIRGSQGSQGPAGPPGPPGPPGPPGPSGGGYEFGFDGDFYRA
The experiment can be described thus: Viscoelastic characterization of collagen type I gels (rheometer). Conditions: 5:1, 10:1 and 30:1 collagen:additive; 0.1-1.0 Hz, 1.0 Pa. As for the experimental part: The PTFE printing restricted gels to the 20 mm diameter wettable region. Gels were formed in a humidified incubator at 37° C. overnight prior to mechanical testing. Slides were clamped on the rheometer stage of a AR-G2 rheometer with 20 mm stainless steel parallel plate geometry (TA Instruments, New Castle, Del.), and the 20 mm stainless steel parallel plate geometry was lowered to a gap distance of 600 μm using a normal force control of 0.25N to avoid excessive shearing on the formed gel. An iterative process of stress and frequency sweeps was performed on gels of collagen alone to determine the linear range. All samples were also tested over a frequency range from 0.1 Hz to 1.0 Hz and a controlled stress of 1.0 Pa. Statistical analysis using Design Expert software ([…], Minneapolis, Minn.) was performed at each frequency and a 5-way ANOVA used to compare samples. […] Viscoelastic characterization was performed as described in EXAMPLE 17 on gels formed with varying ratios of collagen to additive (treatment).

Experiment [3] concerns Human coronary artery smooth muscle cells (HCA SMC). In words: Gel compaction by cells seeded in collagen gels. Conditions: Day 7. Type of experiment: cell-based. As for the experimental part: Human coronary artery smooth muscle cells (HCA SMC) (Cascade Biologics) were cultured in growth medium (Medium 231 supplemented with smooth muscle growth factor). Cells from passage 3 were used for all experiments. Differentiation medium (Medium 231 supplemented with 1% FBS and 1× pen/strep) was used for all experiments unless otherwise noted.
Collagen gels were prepared with each additive as described with the exception that the 1×PBS example addition was omitted to accommodate the addition of cells in media. After incubating on ice for 30 min, HCA SMCs in differentiation medium were added to the gel solutions to a final concentration of 1×10^6 cells/mL. Gels were formed in quadruplicate in 48-well non-tissue culture treated plates (Costar) for 6 hrs before adding 500 μL/well differentiation medium. Gels were freed from the well edges after 24 hrs. Medium was changed every 2-3 days and images for compaction were taken at the same time points using a Gel Doc System (Bio-Rad). The cross-sectional area of circular gels correlating to degree of compaction was determined using ImageJ software (NIH). Gels containing no cells were used as a negative control and cells in collagen gels absent additive were used as a positive control. By day 10 all gels had compacted to approximately 10% of the original gel area, and differences between additives were small.

As to dermatan sulfate [DS], in experiment [1], the Elastin production result was “significantly decreased elastin production over untreated collagen”. In experiment [2], the “Stiffness of collagen gel (storage modulus G')” value is “increase the stiffness of the resulting collagen gel over untreated collagen”. For the same substance, the “Gel compaction, statistical significance” value in experiment [3] is recorded as “significant compared to collagen”.
